Measurements from US6297024A, “Methods for assessing complement activation” (Cell Activation, Inc., priority 1999, dated 2001).
Entries after “also recorded” stand apart in the source; their conditions may differ.

Assays:
[1] = test system: in vitro complement activation (C3 and C4 conversion; MASP-2); assay: in vitro complement activation (C3a and C4a by RIA) in plasma of liver transplant patients; type: biochemical, human
Description: Blood from nineteen liver transplant patients was collected in 0.1 mg/ml Futhan and 0.5 mg/ml EDTA. The C3a and C4a levels were measured at 0 time and after 1 hr at room temperature. These samples were obtained during routine visits by the patients having no signs of acute rejection episodes.
Blood samples of 5-10 ml were drawn from normal donors, liver transplant and SLE (lupus) patients under an approved Human Subjects protocol #96-293 and all individuals were asked to sign an informed consent form agreeing to be voluntary donors. Normal donors were a random group of male and female individuals between the ages of 27-48. Liver transplant patients were selected from a group of patients being routinely followed at The Scripps Clinic Foundation by Dr. John Brems. None of these organ transplant patients were experiencing acute rejection episodes at the time that the blood was drawn.
(§1) Blood samples were either drawn into EDTA tubes (Venoject, Terumo Corp. Elkston, Md.) or Futhan/EDTA tubes (Venoject, Terumo Europe, Leuven, Belgium). The plasma was collected immediately by centrifugation at 2000 g for 15 min. at 4° C. unless otherwise indicated. The plasma samples were either processed immediately for analysis or snap frozen in liquid nitrogen and stored at -70° C. Frozen samples were thawed at 4° C. and processed as described in the text.
(§2) Equal volumes of the plasma sample and the precipitating reagent supplied in the Biotrak RIA kits were mixed by thorough agitation and incubated at rt. for 5 min. The mixture was then centrifuged at 2500 g for 15 min. at 4° C. The supernatant from each sample tube was collected for analysis in the RIA assay. A 50 μl aliquot of the original or diluted supernatant was mixed with 50 μl of the Biotrak assay buffer in a 12×75 mm polypropylene tube. The I^125 labeled C3a or C4a and the specific antibody solutions (50 μl each from the kit) were added and incubated at rt. for 30 min. (for antibody to C3a, C4a, C5a and des Arg derivatives thereof, see Hugli et al. (1975) J. Biol. Chem. 250:1472-1478; Hugli (1975) J. Biol. Chem. 250:8293; and Hugli et al. (1981) J. Biol. Chem. 256:2685-2692). A 50 μl aliquot of the second antibody (goat anti-rabbit) was added to the tube and the mixture incubated for an additional 30 min. at rt. Two ml of isotonic saline was added and the tube was centrifuged at 2000 g for 10 min. at 4° C. to pellet the antigen-antibody complexes. The supernatant in the tubes was decanted and the tubes were counted for 1 min. in a Cobra Auto-gamma Model 5002 (Packard Instrument Co., Meriden, Conn.) scintillation counter. Analysis of each sample was performed in duplicate. Data was analyzed using RiaSmart software supplied by Packard Instruments and installed in the Cobra Auto-gamma counter.
C3a and C4a generation was examined in EDTA plasma of liver transplant patients (average values, n=19) with and without […] Futhan present. These subjects were stable transplant patients not undergoing a clinically detectable rejection episode.

[2] = test system: in vitro complement activation (C3 and C4 conversion; MASP-2); assay: in vitro complement activation (C3a and C4a by RIA) in blood or plasma of normal donors; type: biochemical, human; conditions: for MASP activity: inferred from C4a generation in EDTA blood (FIG. 2); for C4 conversion in blood, additive combined with EDTA: additive plus EDTA, 60 min at rt (FIG. 2); for C3a generation in whole blood / C4 conversion (C4a generation) in whole blood: no EDTA; for C3a generation in whole blood: 0.15 mM Benzamidine, 20 μM Trasylol or 0.1 mg/ml Futhan, 0 time vs 60 min at rt (FIG. 2); for C4 conversion (C4a generation) in whole blood: over 60 min at rt (FIG. 2)
Description: as §1, §2
Blood from a normal donor was drawn into EDTA and 0 to 0.2 mg/ml Futhan was added over time indicated. Plasma was recovered within 30 min. of being drawn and a precipitating agent was added to the 0 time plasma sample (EDTA/p10) to prevent further C-activation. An EDTA/Futhan plasma sample (EDTA/p1) and an EDTA/Futhan blood sample (EDTA/b1) were stored for 1 hr. at 22° C. A separate set of EDTA/Futhan plasma samples were either stored at 4° C. for 24 hr (EDTA/p4) or frozen at -70° C. for 24 hr (EDTA/pF) and then thawed for analysis. C3a and C4a levels were determined using a radioimmunoassay procedure.
Whole blood from a normal donor was drawn into 0.15 mM benzamidine, 20 μM Trasylol or 0.1 mg/ml Futhan and processed either immediately (0 time) or after 60 min. at rt, and then analyzed for C3a and C4a.
In this experiment, whole EDTA (0.5 mg/ml) blood from a normal donor was incubated at 4° C. with and without 0.1 mg/ml Futhan added. The C3a and C4a levels were determined versus time over 23-hr.
Complement activation in EDTA plasma was compared with activation in EDTA/Futhan plasma at room temperature (22-24° C.) over a period of one hour (experiment 3A). […] All blood samples were drawn into EDTA, with and without 0.1 mg/ml Futhan present, and the plasma was collected (see Materials and Methods) and frozen at -70° C. These samples were thawed at 4° C. and analyzed after 0 and 60 min. at rt.

Hageman factor = conditions: Hitomi et al. (1985); cited from earlier work
Factor Xa = conditions: Hitomi et al. (1985); cited from earlier work
[3] = test system: acute rejection episode in liver transplant patients; assay: treatment of rejection episodes in liver transplant patients; type: in vivo, human; conditions: two 1 g (I.V.) doses
Description: Blood and urine samples were collected over a period of two years from 63 liver transplant patients during routine post-operative clinical visits. The patients' identities were concealed and no selection process or attempt was made to recruit patients for any other reason than that they had undergone orthotopic liver transplantation at The Scripps Clinic and Research Foundation. Immunosuppression was initiated with a regimen of cyclosporine A (CsA), azathioprine and steroids. Treatment for some of these patients was switched to FK506, but none was treated with OKT3. Patients were seen weekly in the outpatient transplant clinic after transplantation until their liver function tests stabilized. […] Measurement of the relevant clinical parameters was obtained during each visit. Liver biopsies were obtained whenever there was an abnormality in liver function tests.

[4] = n=20, stored at 4° C. for 24 hours
[5] = normal plasma, n = 20, processed immediately at rt, total data set
[6] = normal plasma, processed immediately at rt, values outside ± 2σ eliminated
[7] = Table III samples, plasma processed immediately
[8] = normal donor, listed as benzamidine

O=C(O)CN(CCN(CC(=O)O)CC(=O)O)CC(=O)O [EDTA, ethylenediaminetetraacetic acid]
C4a in liver transplant patient plasma after 60 min at rt ([1]; n=19, average): 16.9 µg/mL | C4a in liver transplant patient plasma at 0 time ([1]; n=19, average): 4.02 µg/mL | C4a level in liver transplant patient plasma at 0 time ([1]; n=19, average (experiment 3B)): 4020 ± 6100 ng/mL | activity of the Lectin Pathway in EDTA plasma ([2]; Table II, line III): IN VITRO | C4a elevation over 60 min in normal plasma ([2]; n=11, average, rt): 3-4 fold | C4a level in normal plasma at 0 time ([2]; n=11, frozen at -70° C., thawed at 4° C., 0 min at rt (experiment 3A)): 242 ± 95 ng/mL | C4a level in normal plasma after 60 min ([2]; n=11, frozen at -70° C., thawed at 4° C., 60 min at rt (experiment 3A)): 768 ± 392 ng/mL | C3a values in normal plasma [2, 4]: 0.60 ± 0.026 µg/mL | C4a levels in normal plasma [2, 4]: 0.32 ± 0.017 µg/mL | C4a level in whole blood at 4° C., end ([2]; normal donor, EDTA 0.5 mg/ml, after 23 hr): more than 1700 ng/ml | C4a level in whole blood at 4° C., start ([2]; normal donor, EDTA 0.5 mg/ml, start of 23-hr period): 300 ng/mL | C3a, mean ± standard deviation, data set I ([2]; normal plasma, n = 20, EDTA 1 mg/ml or Futhan 0.2 mg/ml and EDTA, processed immediately at rt, total data set): 599 ± 263 ng/mL | C3a, range of values, data set I [2, 5]: 349 to 1344 ng/mL | C4a, mean ± standard deviation, data set I [2, 5]: 316 ± 169 ng/mL | C4a, range of values, data set I [2, 5]: 130 to 774 ng/mL | C3a, mean ± standard deviation, data set II [2, 6]: 484 ± 110 ng/mL | C3a, range of values, data set II [2, 6]: 349 to 722 ng/mL | C4a, mean ± standard deviation, data set II [2, 6]: 268 ± 95 ng/mL | C4a, range of values, data set II [2, 6]: 130 to 433 ng/mL | C3 conversion when EDTA was added to the blood ([2]; normal whole blood (FIG. 2)): virtually no C3 was converted | C4 conversion when EDTA was added to the blood ([2]; normal whole blood (FIG. 2)): remarkable increase in C4 conversion | C3a levels in whole blood at 4° C. versus time, relative to Futhan/EDTA blood ([2]; over 23 hr): only slightly higher | C3a generation in normal blood at 4° C. ([2]; over a 27-hr period): sufficient to prevent C3a generation

CS(=O)(=O)O.CS(=O)(=O)O.N=C(N)Nc1ccc(C(=O)Oc2ccc3cc(C(=N)N)ccc3c2)cc1 [Futhan, 6-amidino-2-naphthyl-p-guanidinobenzoate dimethanesulfonate]
time-dependent C3a and C4a elevation in patient EDTA plasma ([1]; 60 min at room temperature (experiment 3B)): effectively prevented | levels of C3a and C4a after 1 hr of incubation at rt ([1]; nineteen patients, 0.1 mg/ml Futhan and 0.5 mg/ml EDTA): unchanged in most samples | C4 converting activity in EDTA plasma ([1]; transplant patients): fully inhibitable | effective inhibitory level toward Hageman factor (Hageman factor): sub-micromolar level | C4 conversion / C-activation versus time in normal EDTA plasma ([2]; 0.01 mg/ml Futhan, dimethanesulfonate): measurable reduction in C4 conversion; also recorded: effective in protecting normal plasma from C-activation | C4 cleavage in normal EDTA plasma ([2]; 0.10 mg/ml Futhan, over a 24-hour period): virtually eliminated C4 cleavage | C3a levels in EDTA samples ([2]; 0.2 mg/ml Futhan, compared with lower Futhan levels (experiment 1)): somewhat higher | activation of C4 in normal EDTA plasma ([2]; Futhan added (experiment 1)): abolished | activity of all pathways with Futhan (Futhan/EDTA) ([2]; Table II, line IV): NO IN VITRO C-ACTIVATION | reduction in C3a levels by addition of Futhan [2, 7]: no significant reduction | reduction in C4a levels by addition of Futhan [2, 7]: only marginal reduction | MASP activity [2]: inhibits MASP | C3a and C4a generation in EDTA plasma from normal donors ([2]; n=11, 0.1 mg/ml Futhan, rt, one hour (experiment 3A)): effectively inhibited | C4 conversion in blood, additive combined with EDTA ([2]; normal donor, dimethanesulfonate): fully effective; also recorded: fully blocked in vitro C-activation | C3a generation in whole blood ([2]; normal donor): effective inhibitor | generation of C3a or C4a in stored samples ([2]; stored 24 hr on ice or frozen and thawed): minimal generation of either C3a or C4a | stabilizing C3 and C4 in normal whole blood ([2]; with or without EDTA, up to one hour at room temperature (FIG. 2)): effective in stabilizing C3 and C4 | effective inhibitory level toward Factor Xa (Factor Xa): sub-micromolar level

N=C(N)c1ccccc1 [Benzamidine, benzamidine]
MASP activity [2]: does not inhibit MASP activity | C4 conversion in blood, additive combined with EDTA ([2]; normal donor): extensive conversion of C4 occurred | C4 conversion in blood, additive combined with EDTA [2, 8]: high levels of C4a are generated | C4 conversion (C4a generation) in whole blood ([2]; normal donor): relatively effective in preventing C4 conversion | C4 conversion (C4a generation) in whole blood [2, 8]: no C4a generated in whole blood | C3a generation in whole blood ([2]; normal donor): failed to prevent C3a generation

C[C@H]1C[C@@H]2[C@H]([C@@H](O)C[C@@]3(C)[C@H]2CC[C@]3(O)C(=O)CO)[C@@]2(C)C=CC(=O)C=C12 [methylprednisolone]
course of the rejection episode after treatment [3]: resolved rapidly
